Each block holds one compound with its values, some of them ahead of it.
Legend:
[1] = small animal PET imaging of 2-[18F]FBTTP in healthy mice; assay type: in vivo; settings: 350 μCi via tail vein, PET at 10 min, 30 min, 1 hour and 2 hours post-injection
Description: (R)-2-((2-amino-5-mercaptothiazolo[4,5-d]pyrimidin-7-yl)amino)-4-methylpentan-1-ol was synthesized as previously reported (Karlstrom et al., 2013) and alkylated with 2-[^18F]fluoro-benzylbromide to produce 2-[^18F]FBTTP. 2-[^18F]fluorobenzylbromide was prepared by a one-pot microwave radiofluorination of 2-formyl-N,N,N-trimethylbenzenanilinium triflate followed by sodium borohydride reduction, and bromination with 48% HBr using a procedure analogous to that reported for the preparation of 4-[^18F]fluoro-benzylbromide (Cho et al., 2012; Ravert et al., 2014). 2-[^18F]FBTTP (350 μCi) was injected via the tail vein of healthy mice and imaged using small animal PET. Images were collected at 10, 30, 60, and 120 min post-injection. 2-[^18F]FBTTP was prepared in a decay corrected yield of 10.2% in a specific activity of 1500 Ci/mmol (55,500 GBq/mmol) in a total synthesis time of 110 min.
To evaluate in vivo pharmacokinetics of 2-[^18F]FBTTP, 350 μCi of the radiotracer was formulated in 200 μL of saline with 10% ethanol and injected into healthy mice via the tail vein. The images were collected at 10 min, 30 min, 1 hour and 2 hours post-injection.

CXCR2 = target: T1, CXCR2 (Homo sapiens, UniProt P25025); settings: cited from earlier work; for Ki: binding affinity, reported
T1 sequence (P25025 1-360): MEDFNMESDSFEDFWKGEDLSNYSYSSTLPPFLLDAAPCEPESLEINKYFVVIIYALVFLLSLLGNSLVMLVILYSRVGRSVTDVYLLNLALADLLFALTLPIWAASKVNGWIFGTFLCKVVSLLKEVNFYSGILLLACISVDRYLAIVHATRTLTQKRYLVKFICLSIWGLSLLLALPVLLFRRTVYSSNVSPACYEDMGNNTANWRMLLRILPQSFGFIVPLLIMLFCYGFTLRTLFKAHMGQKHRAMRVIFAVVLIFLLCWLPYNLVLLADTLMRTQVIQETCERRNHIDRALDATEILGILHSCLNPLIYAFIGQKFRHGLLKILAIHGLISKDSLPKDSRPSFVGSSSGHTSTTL

CX3CR1 = target: T2, CX3CR1 (Homo sapiens, UniProt P49238); settings: binding affinity, reported; cited from earlier work
T2 sequence (P49238 1-355): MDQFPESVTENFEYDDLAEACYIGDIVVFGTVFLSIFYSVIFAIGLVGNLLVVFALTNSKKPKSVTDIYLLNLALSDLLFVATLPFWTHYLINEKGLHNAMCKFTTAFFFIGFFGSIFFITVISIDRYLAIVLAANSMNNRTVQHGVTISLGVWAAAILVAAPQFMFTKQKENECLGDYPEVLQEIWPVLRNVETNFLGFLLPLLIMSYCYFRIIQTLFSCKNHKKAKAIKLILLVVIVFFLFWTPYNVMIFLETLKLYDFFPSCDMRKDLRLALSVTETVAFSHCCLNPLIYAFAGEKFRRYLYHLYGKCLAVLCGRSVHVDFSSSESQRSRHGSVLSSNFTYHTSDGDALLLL

in vivo pharmacokinetics [1]: favorable in vivo pharmacokinetics
SMILES: CC(C)CC(CO)Nc1nc(SCc2ccccc2[18F])nc2nc(N)sc12 (centres unmarked) [2-[^18F]FBTTP, 2-((2-amino-5-((2-[18F]fluorobenzyl)thio)thiazolo[4,5-d]pyrimidin-7-yl)amino)-4-methylpentan-1-ol]

SMILES: CC(C)C[C@H](CO)Nc1nc(SCc2ccccc2F)nc2nc(N)sc12 [Compound 9d, (R)-2-((2-amino-5-((2-fluorobenzyl)thio)thiazolo[4,5-d]pyrimidin-7-yl)amino)-4-methylpentan-1-ol]
selectivity over CXCR2 (CXCR2; CX3CR1 over CXCR2): 18 fold

SMILES: CC(C)C[C@H](CO)Nc1nc(SC(C)c2ccccc2F)nc2nc(N)sc12 (stereo partly drawn) [Compound 9e, (2R)-2-((2-amino-5-((1-(2-fluorophenyl)ethyl)thio)thiazolo[4,5-d]pyrimidin-7-yl)amino)-4-methylpentan-1-ol]
Ki (CX3CR1): 0.0047 µM
Ki (CXCR2): 1.4 µM

SMILES: CC(C)C[C@H](CO)Nc1nc(SCc2ccc(Br)cc2F)nc2nc(N)sc12 [Compound 9f, (R)-2-((2-amino-5-((4-bromo-2-fluorobenzyl)thio)thiazolo[4,5-d]pyrimidin-7-yl)amino)-4-methylpentan-1-ol]
Ki (CXCR2): 1.4 µM

Source: patent US20180222922A1, “RADIOFLUORINATED 7-AMINO-5-THIO-THIAZOLO[4,5-D]PYRIMIDINES FOR IMAGING FRACTALKINE RECEPTOR (CX3CR1)” (THE JOHNS HOPKINS UNIVERSITY, priority 2015, published 2018)
